From patent publication US20250228239A1, “MOLECULES HAVING PESTICIDAL UTILITY, AND INTERMEDIATES, COMPOSITIONS, AND PROCESSES, RELATED THERETO” (priority 2024, published 2025)

Assays:
Assay type in all cases: in vivo
[1] = tested on: Cabbage Looper (Trichoplusia ni, TRIPNI); experiment: Bioassays on Cabbage Looper (CL), 128-well diet tray assay; settings: Trichoplusia ni; Table ABC: Biological Results; species CL; read-out: CL
How it was run: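 One to five second-instar larvae per well on artificial diet surface-treated with 50 μg/cm^2 test molecule (applied in 90:10 acetone-water, dried). Held 5–7 days at 25° C, 14:10 light-dark; percent mortality recorded per well and averaged over eight wells.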

[2] = tested on: Yellow Fever Mosquito (Aedes aegypti, AEDSAE); settings: Table ABC: Biological Results; species YFM
Description: Certain molecules disclosed in this document were tested against YFM using procedures described in the following paragraph. In the reporting of the results, the “GPA & YFM Rating Table” was used (See Table Section).
Master plates containing 400 μg of a molecule dissolved in 100 μL of dimethyl sulfoxide (DMSO) (equivalent to a 4000 ppm solution) are used. A master plate of assembled molecules contains 15 μL per well. To this plate, 135 μL of a 90:10 water/acetone mixture is added to each well. A robot (Biomek® NXP Laboratory Automation Workstation) is programmed to dispense 15 μL aspirations from the master plate into an empty 96-well shallow plate (“daughter” plate). There are 6 reps (“daughter” plates) created per master. The created “daughter” plates are then immediately infested with YFM larvae.
The day before plates are to be treated, mosquito eggs are placed in Millipore water containing liver powder to begin hatching (4 g into 400 mL). After the “daughter” plates are created using the robot, they are infested with 220 μL of the liver powder/larval mosquito mixture (about 1 day-old larvae). After plates are infested with mosquito larvae, a non-evaporative lid is used to cover the plate to reduce drying. Plates are held at room temperature for 3 days prior to grading. After 3 days, each well is observed and scored based on mortality. The results are indicated in the table entitled “Table ABC: Biological Results” (See Table Section).

[3] = tested on: Beet Armyworm (Spodoptera exigua, LAPHEG); experiment: Bioassays on Beet Armyworm (BAW), 128-well diet tray assay; settings: Spodoptera exigua; Table ABC: Biological Results; species BAW; read-out: BAW
How it was run: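 Mortality of second-instar larvae (1–5/well) on artificial diet treated with 50 μg/cm^2 compound, read after 5–7 days at 25° C.; values are means of eight wells.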

| SMILES | pest or weed control at 50 µg/cm2 [1] [%] | YFM [2] | pest or weed control at 50 µg/cm2 [3] [%] |
| --- | --- | --- | --- |
| Nc1c(F)ccc(NC(=O)c2cc(NC(=O)[C@H]3[C@@H](c4cc(F)c(Cl)c(Cl)c4)C3(Cl)Cl)ccc2Cl)c1F (relative stereo) [F1047, cis-N-(3-Amino-2,4-difluorophenyl)-2-chloro-5-(2,2-dichloro-3-(3,4-dichloro-5-fluorophenyl)cyclopropane-1-carboxamido)benzamide] | 50 to 100 | A (80–100) | 50 to 100 |
| Nc1c(F)ccc(NC(=O)c2cc(NC(=O)[C@H]3[C@H](c4ccc(F)c(Cl)c4F)C3(Cl)Cl)ccc2Cl)c1F (relative stereo) [F1049, trans-N-(3-Amino-2,4-difluorophenyl)-2-chloro-5-(2,2-dichloro-3-(3-chloro-2,4-difluorophenyl)cyclopropane-1-carboxamido)benzamide] | 50 to 100 | A (80–100) | 50 to 100 |
| O=C(Nc1ccc(F)cc1F)c1cc(NC(=O)[C@H]2[C@H](c3cc(C(F)(F)F)cc(Cl)c3F)C2(Cl)Cl)ccc1Cl (relative stereo) [F1050, trans-2-Chloro-5-(2,2-dichloro-3-(3-chloro-2-fluoro-5-(trifluoromethyl)phenyl)cyclopropane-1-carboxamido)-N-(2,4-difluorophenyl)benzamide] | 50 to 100 | A (80–100) | 50 to 100 |
| O=C(Nc1ccc(F)cc1F)c1cc(NC(=O)[C@H]2[C@@H](c3cc(C(F)(F)F)cc(Cl)c3F)C2(Cl)Cl)ccc1Cl (relative stereo) [F1051, cis-2-Chloro-5-(2,2-dichloro-3-(3-chloro-2-fluoro-5-(trifluoromethyl)phenyl)cyclopropane-1-carboxamido)-N-(2,4-difluorophenyl)benzamide] | 50 to 100 | A (80–100) | 50 to 100 |
| Cc1cc(Br)ccc1NC(=O)c1cc(NC(=O)[C@H]2[C@H](c3cc(Cl)cc(Cl)c3)C2(Cl)Cl)ccc1Cl (relative stereo) [F1054, trans-N-(4-Bromo-2-methylphenyl)-2-chloro-5-(2,2-dichloro-3-(3,5-dichlorophenyl)cyclopropane-1-carboxamido)benzamide] | 50 to 100 | A (80–100) | 50 to 100 |
| O=C(Nc1ccc(F)cc1)c1cc(NC(=O)[C@H]2[C@H](c3cc(Cl)cc(Cl)c3)C2(F)F)ccc1Cl (relative stereo) [F1057, trans-2-Chloro-5-(3-(3,5-dichlorophenyl)-2,2-difluorocyclopropane-1-carboxamido)-N-(4-fluorophenyl)benzamide] | 50 to 100 | A (80–100) | 50 to 100 |
| O=C(Nc1ccc(F)cc1F)c1cc(NC(=O)[C@H]2[C@H](c3cc(Cl)cc(Cl)c3)C2(F)F)ccc1Cl (relative stereo) [F1058, trans-2-Chloro-5-(3-(3,5-dichlorophenyl)-2,2-difluorocyclopropane-1-carboxamido)-N-(2,4-difluorophenyl)benzamide] | 50 to 100 | A (80–100) | 50 to 100 |
| CC(=O)Nc1ccc(NC(=O)c2cc(NC(=O)[C@H]3[C@H](c4ccc(Cl)c(Cl)c4)C3(Cl)Cl)ccc2Cl)c(C)c1 (relative stereo) [F1059, trans-N-(4-Acetamido-2-methylphenyl)-2-chloro-5-(2,2-dichloro-3-(3,4-dichlorophenyl)cyclopropane-1-carboxamido)benzamide] | 50 to 100 | A (80–100) | 50 to 100 |
| Cc1cc(NC(=O)C(F)(F)F)ccc1NC(=O)c1cc(NC(=O)[C@H]2[C@H](c3ccc(Cl)c(Cl)c3)C2(Cl)Cl)ccc1Cl (relative stereo) [F1061, trans-2-Chloro-5-(2,2-dichloro-3-(3,4-dichlorophenyl)cyclopropane-1-carboxamido)-N-(2-methyl-4-(2,2,2-trifluoroacetamido)phenyl)benzamide] | 50 to 100 | A (80–100) | 50 to 100 |
| Cc1cc(NC(=O)C(F)F)ccc1NC(=O)c1cc(NC(=O)[C@H]2[C@H](c3ccc(Cl)c(Cl)c3)C2(Cl)Cl)ccc1Cl (relative stereo) [F1062, trans-2-Chloro-5-(2,2-dichloro-3-(3,4-dichlorophenyl)cyclopropane-1-carboxamido)-N-(4-(2,2-difluoroacetamido)-2-methylphenyl)benzamide] | 50 to 100 | A (80–100) | 50 to 100 |
| Cc1cc([C@H]2[C@H](C(=O)Nc3ccc(Cl)c(C(=O)Nc4ccc(F)cc4F)c3)C2(Cl)Cl)cc(C(F)(F)F)c1F (relative stereo) [F1066, trans-2-Chloro-5-(2,2-dichloro-3-(4-fluoro-3-methyl-5-(trifluoromethyl)phenyl)cyclopropane-1-carboxamido)-N-(2,4-difluorophenyl)benzamide] | 50 to 100 | A (80–100) | 50 to 100 |
| Cc1cc([C@@H]2[C@H](C(=O)Nc3ccc(Cl)c(C(=O)Nc4ccc(F)cc4F)c3)C2(Cl)Cl)cc(C(F)(F)F)c1F (relative stereo) [F1067, cis-2-Chloro-5-(2,2-dichloro-3-(4-fluoro-3-methyl-5-(trifluoromethyl)phenyl)cyclopropane-1-carboxamido)-N-(2,4-difluorophenyl)benzamide] | 50 to 100 | A (80–100) | 50 to 100 |
| CC(C)(C)OC(=O)Nc1c(F)ccc(NC(=O)c2cc(NC(=O)[C@H]3[C@H](c4cc(Cl)cc(Cl)c4)C3(F)F)ccc2Cl)c1F (relative stereo) [F1070, trans-tert-Butyl (3-(2-chloro-5-(3-(3,5-dichlorophenyl)-2,2-difluorocyclopropane-1-carboxamido)benzamido)-2,6-difluorophenyl)carbamate] | 50 to 100 | A (80–100) | 50 to 100 |
| CNc1c(F)ccc(N(C)C(=O)c2cc(NC(=O)[C@H]3[C@H](c4ccc(Cl)c(Cl)c4)C3(Cl)Cl)ccc2Cl)c1F (relative stereo) [F1071, trans-2-Chloro-5-(2,2-dichloro-3-(3,4-dichlorophenyl)cyclopropane-1-carboxamido)-N-(2,4-difluoro-3-(methylamino)phenyl)-N-methylbenzamide] | 50 to 100 | A (80–100) | 50 to 100 |
| Nc1c(F)ccc(NC(=O)c2cc(NC(=O)[C@H]3[C@H](c4cc(Br)cc(C(F)(F)F)c4)C3(Cl)Cl)ccc2Cl)c1F (relative stereo) [F1075, trans-N-(3-Amino-2,4-difluorophenyl)-5-(3-(3-bromo-5-(trifluoromethyl)phenyl)-2,2-dichlorocyclopropane-1-carboxamido)-2-chlorobenzamide] | 50 to 100 | A (80–100) | 50 to 100 |
| CC(C)(C)OC(=O)Nc1c(F)ccc(NC(=O)c2cc(NC(=O)[C@H]3[C@H](c4ccc(Cl)c(C(F)(F)F)c4)C3(Cl)Cl)ccc2Cl)c1F (relative stereo) [F1077, trans-tert-Butyl-(3-(2-chloro-5-(2,2-dichloro-3-(4-chloro-3-(trifluoromethyl)phenyl)cyclopropane-1-carboxamido)benzamido)-2,6-difluorophenyl)carbamate] | 50 to 100 | A (80–100) | 50 to 100 |
| CC(C)(C)OC(=O)Nc1c(F)ccc(NC(=O)c2cc(NC(=O)[C@H]3[C@H](c4ccc(F)c(C(F)(F)F)c4)C3(Cl)Cl)ccc2Cl)c1F (relative stereo) [F1078, trans-tert-Butyl-(3-(2-chloro-5-(2,2-dichloro-3-(4-fluoro-3-(trifluoromethyl)phenyl)cyclopropane-1-carboxamido)benzamido)-2,6-difluorophenyl)carbamate] | 50 to 100 | A (80–100) | 50 to 100 |
| CC(=O)OCN(C(=O)c1cc(NC(=O)[C@H]2[C@H](c3cc(Cl)cc(Cl)c3)C2(Cl)Cl)ccc1Cl)c1ccc(F)cc1C#N (relative stereo) [F1084, trans-(2-Chloro-N-(2-cyano-4-fluorophenyl)-5-(2,2-dichloro-3-(3,5-dichlorophenyl)cyclopropane-1-carboxamido)benzamido)methyl acetate] | 50 to 100 | A (80–100) | 50 to 100 |
